What was measured:
Format in all cases: in vivo
[1] = test system: Leptochloa chinensis; experiment: Test Example 3: herbicidal effect by foliage application, Wagner pot (symbol D); conditions: application herbicide amount 320 g/ha
In short: (§1)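 In a shallow-flooded alluvial soil system held at 25–30 °C, plants including rice grew for 14 days and were then sprayed over the foliage with emulsion diluted to a fixed herbicide amount. Visual rating followed at 3 weeks.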

[2] = test system: Cyperus difformis; experiment: Test Example 3: herbicidal effect by foliage application, Wagner pot (symbol E); conditions: application herbicide amount 320 g/ha
In short: as §1

[3] = test system: directly sowed rice plant; experiment: Test Example 3: effect on crop by foliage application, Wagner pot (symbol b); conditions: application herbicide amount 320 g/ha
In short: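 Alluvial soil in a 1/10000-are Wagner pot was flooded to a water depth of 0.1–0.5 cm. Echinochloa crus-galli var. crus-galli, Leptochloa chinensis, Cyperus difformis and rice were sown into it and grown in a greenhouse at 25–30 °C.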

[4] = test system: Digitaria ciliaris; experiment: Test Example 4: herbicidal effect by soil treatment (symbol F); conditions: application herbicide amount 320 g/ha
In short: (§2)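 Seeds were sown in sterilized diluvial soil, covered with about 1.5 cm of soil, and the soil surface was sprayed with a water-diluted emulsion of the compound at a predetermined rate. Plants grew in a greenhouse at 25° C. to 30° C.; effects were scored visually 3 weeks after application.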

[5] = test system: Echinochloa crus-galli var. crus-galli; experiment: Test Example 4: herbicidal effect by soil treatment (symbol H); conditions: application herbicide amount 320 g/ha
In short: as §2

[6] = test system: Lolium multiflorum Lam.; experiment: Test Example 4: herbicidal effect by soil treatment (symbol K); conditions: application herbicide amount 320 g/ha
In short: as §2

[7] = test system: Abutilon theophrasti; experiment: Test Example 4: herbicidal effect by soil treatment (symbol M); conditions: application herbicide amount 320 g/ha
In short: as §2

[8] = test system: Amaranthus retroflexus; experiment: Test Example 4: herbicidal effect by soil treatment (symbol N); conditions: application herbicide amount 320 g/ha
In short: as §2

[9] = test system: corn; experiment: Test Example 4: effect on crop by soil treatment (symbol c); conditions: application herbicide amount 320 g/ha
In short: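 Seeds were sown in spots on sterilized diluvial soil in a plastic box and covered with about 1.5 cm of soil. Plants were then grown in a greenhouse at 25° C. to 30° C.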

[10] = test system: soybean; experiment: Test Example 4: effect on crop by soil treatment (symbol d); conditions: application herbicide amount 320 g/ha
In short: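 The test used sterilized diluvial soil. Seed was set down in spots and overlaid with about 1.5 cm of soil before growth in a greenhouse kept at 25° C. to 30° C.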

[11] = test system: Setaria viridis; experiment: Test Example 5: herbicidal effect by foliage application, plastic box (symbol G); conditions: 320 g/ha, 3 weeks after application
In short: (§3)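 Seeds were sown in sterilized diluvial soil, covered with about 1.5 cm of soil and grown 14 days in a greenhouse at 25° C. to 30° C. An emulsifiable formulation diluted in water to a set rate was sprayed over foliage, and injury was scored 3 weeks later.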

[12] = test system: Avena fatua; experiment: Test Example 5: herbicidal effect by foliage application, plastic box (symbol I); conditions: 320 g/ha, 3 weeks after application
In short: as §3

[13] = test system: Lolium multiflorum Lam.; experiment: Test Example 5: herbicidal effect by foliage application, plastic box (symbol K); conditions: 320 g/ha, 3 weeks after application
In short: as §3

[14] = test system: Apera spica-venti; experiment: Test Example 5: herbicidal effect by foliage application, plastic box (symbol L); conditions: 320 g/ha, 3 weeks after application
In short: as §3

[15] = test system: Abutilon theophrasti; experiment: Test Example 5: herbicidal effect by foliage application, plastic box (symbol M); conditions: 320 g/ha, 3 weeks after application
In short: as §3

[16] = test system: Chenopodium album; experiment: Test Example 5: herbicidal effect by foliage application, plastic box (symbol O); conditions: 320 g/ha, 3 weeks after application
In short: as §3

[17] = test system: Stellaria media; experiment: Test Example 5: herbicidal effect by foliage application, plastic box (symbol P); conditions: 320 g/ha, 3 weeks after application
In short: as §3

[18] = test system: corn; experiment: Test Example 5: effect on crop by foliage application, plastic box (symbol c); conditions: 320 g/ha, 3 weeks after application
In short: (§4)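 Foliage-application test plants come from spot sowing in sterilized diluvial soil under a soil layer of about 1.5 cm, grown at 25° C. to 30° C. in a greenhouse.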

[19] = test system: wheat; experiment: Test Example 5: effect on crop by foliage application, plastic box (symbol e); conditions: 320 g/ha, 3 weeks after application
In short: as §4

[20] = test system: beet; experiment: Test Example 5: effect on crop by foliage application, plastic box (symbol f); conditions: 320 g/ha, 3 weeks after application
In short: as §4

[21] = test system: rapeseed; experiment: Test Example 5: effect on crop by foliage application, plastic box (symbol g); conditions: 320 g/ha, 3 weeks after application
In short: as §4

C#CCOC1=C(c2c(C)cc(C)cc2C)C(=O)C(CC(C)=NOC)C1 (stereo not drawn) [1-008]
herbicidal effect on D (Leptochloa chinensis), grade 0-5 [1]: 5 (Herbicidal ratio of 90% or more (almost completely withered))
herbicidal effect on E, grade 0-5 [2]: 4 (Herbicidal ratio of 70% or higher and lower than 90%)
effect on crop b (directly sowed rice plant), grade 0-5 [3]: 5 (Herbicidal ratio of 90% or more (almost completely withered))
F (Digitaria ciliaris) herbicidal effect grade [4]: 5 (Herbicidal ratio of 90% or more (almost completely withered))
H (Echinochloa crus-galli var. crus-galli) herbicidal effect grade [5]: 4 (Herbicidal ratio of 70% or higher and lower than 90%)
K (Lolium multiflorum Lam.) herbicidal effect grade [6]: 5 (Herbicidal ratio of 90% or more (almost completely withered))
M (Abutilon theophrasti) herbicidal effect grade [7]: 0 (Herbicidal ratio of 5% or lower (almost no effect))
N (Amaranthus retroflexus) herbicidal effect grade [8]: 0 (Herbicidal ratio of 5% or lower (almost no effect))
c (corn) effect on crop grade [9]: 0 (Herbicidal ratio of 5% or lower (almost no effect))
d (soybean) effect on crop grade [10]: 0 (Herbicidal ratio of 5% or lower (almost no effect))
G: Setaria viridis, herbicidal effect grade [11]: 5 (Herbicidal ratio of 90% or more (almost completely withered))
I: Avena fatua, herbicidal effect grade [12]: 4 (Herbicidal ratio of 70% or higher and lower than 90%)
K: Lolium multiflorum Lam., herbicidal effect grade [13]: 5 (Herbicidal ratio of 90% or more (almost completely withered))
L: Apera spica-venti, herbicidal effect grade [14]: 4 (Herbicidal ratio of 70% or higher and lower than 90%)
M: Abutilon theophrasti, herbicidal effect grade [15]: 2 (Herbicidal ratio of 20% or higher and lower than 40%)
O: Chenopodium album, herbicidal effect grade [16]: 0 (Herbicidal ratio of 5% or lower (almost no effect))
P: Stellaria media, herbicidal effect grade [17]: 0 (Herbicidal ratio of 5% or lower (almost no effect))
c: corn, effect on crop grade [18]: 0 (Herbicidal ratio of 5% or lower (almost no effect))
e: wheat, effect on crop grade [19]: 0 (Herbicidal ratio of 5% or lower (almost no effect))
f: beet, effect on crop grade [20]: 0 (Herbicidal ratio of 5% or lower (almost no effect))
g: rapeseed, effect on crop grade [21]: 3 (Herbicidal ratio of 40% or higher and lower than 70%)

CON=C(C)CC1CC(OC(=O)c2ccccc2)=C(c2c(C)cc(C)cc2C)C1=O (stereo not drawn) [1-010]
herbicidal effect on D (Leptochloa chinensis), grade 0-5 [1]: 5 (Herbicidal ratio of 90% or more (almost completely withered))
herbicidal effect on E, grade 0-5 [2]: 5 (Herbicidal ratio of 90% or more (almost completely withered))
effect on crop b (directly sowed rice plant), grade 0-5 [3]: 5 (Herbicidal ratio of 90% or more (almost completely withered))
F (Digitaria ciliaris) herbicidal effect grade [4]: 5 (Herbicidal ratio of 90% or more (almost completely withered))
H (Echinochloa crus-galli var. crus-galli) herbicidal effect grade [5]: 5 (Herbicidal ratio of 90% or more (almost completely withered))
K (Lolium multiflorum Lam.) herbicidal effect grade [6]: 5 (Herbicidal ratio of 90% or more (almost completely withered))
M (Abutilon theophrasti) herbicidal effect grade [7]: 5 (Herbicidal ratio of 90% or more (almost completely withered))
N (Amaranthus retroflexus) herbicidal effect grade [8]: 5 (Herbicidal ratio of 90% or more (almost completely withered))
c (corn) effect on crop grade [9]: 4 (Herbicidal ratio of 70% or higher and lower than 90%)
d (soybean) effect on crop grade [10]: 4 (Herbicidal ratio of 70% or higher and lower than 90%)
G: Setaria viridis, herbicidal effect grade [11]: 5 (Herbicidal ratio of 90% or more (almost completely withered))
I: Avena fatua, herbicidal effect grade [12]: 5 (Herbicidal ratio of 90% or more (almost completely withered))
K: Lolium multiflorum Lam., herbicidal effect grade [13]: 5 (Herbicidal ratio of 90% or more (almost completely withered))
L: Apera spica-venti, herbicidal effect grade [14]: 5 (Herbicidal ratio of 90% or more (almost completely withered))
M: Abutilon theophrasti, herbicidal effect grade [15]: 4 (Herbicidal ratio of 70% or higher and lower than 90%)
O: Chenopodium album, herbicidal effect grade [16]: 4 (Herbicidal ratio of 70% or higher and lower than 90%)
P: Stellaria media, herbicidal effect grade [17]: 4 (Herbicidal ratio of 70% or higher and lower than 90%)
c: corn, effect on crop grade [18]: 5 (Herbicidal ratio of 90% or more (almost completely withered))
e: wheat, effect on crop grade [19]: 5 (Herbicidal ratio of 90% or more (almost completely withered))
f: beet, effect on crop grade [20]: 4 (Herbicidal ratio of 70% or higher and lower than 90%)
g: rapeseed, effect on crop grade [21]: 4 (Herbicidal ratio of 70% or higher and lower than 90%)

From US11000033B2, “Ketone or oxime compound, and herbicide” (NISSAN CHEMICAL CORPORATION, priority 2014, dated 2021)
